# Results taken from ChEMBL document CHEMBL1147758, “4-hydroxyisoleucine an unusual amino acid as antidyslipidemic and antihyperglycemic agent” (2006).
# Key:
# Assay type in all cases: functional, Mesocricetus auratus
# [1] = test system: Syrian golden hamster; test: Lowering of free fatty acids in dyslipidemic male syrian hamsters at 50 mg/kg, po
# [2] = test system: Syrian golden hamster; test: Increase in ratio between HDL-cholesterol and total cholesterol in dyslipidemic male syrian hamsters at 50 mg/kg, po
# [3] = test system: Syrian golden hamster; test: Lowering of plasma triglyceride level in dyslipidemic male syrian hamsters at 50 mg/kg, po
# [4] = test system: Syrian golden hamster; test: Lowering of glycerol in dyslipidemic male syrian hamsters at 50 mg/kg, po
# [5] = test system: Syrian golden hamster; test: Lowering of total cholesterol level in dyslipidemic male syrian hamsters at 50 mg/kg, po
# [6] = test system: Syrian golden hamster; test: Increase in HDL-cholesterol in dyslipidemic male syrian hamsters at 50 mg/kg, po
smiles,measurement,setting,value
C[C@@H]([C@H](C)O)[C@H](N)C(=O)O,Activity,[1],14%
same,Ratio,[2],39%
same,Activity,[3],33%
same,Activity,[4],4.9%
same,Activity,[5],22%
same,Activity,[6],8.7%
